Read-outs that look alike come from different tables or passages of the source.

Common to all, as to assay: cells
The subject of test [1] is endothelial tube formation in co-cultures of ECFCs and ADSCs treated with VEGF. The format is cell-based, human.
For test [2], the system named is nuclear β-catenin in C2C12 cells. The format is cell-based.
In a further test the test system is INS-1E cells. The format is cell-based, rat.
The next test has as its system NCI-H716 cells. The format is cell-based, Human.
The next test has as its system HeLa cells. The format is cell-based. The following applies: HeLa, read-out: CellCycle G2/M.
A further test concerns DLD-1. The format is cell-based.
For a further test, the system named is SW480. The format is cell-based.
A further test concerns HCT116. The format is cell-based.
For test [3], the system named is HCT116 cells treated with a GSK3β inhibitor. The format is cell-based.
The subject of a further test is Colo320. The format is cell-based.
The test system of another test is HT-29. The format is cell-based.
The test system of another test is SNU-C1. The format is cell-based.
In another test the test system is RKO. The format is cell-based.
[4] abbreviates: Mus musculus, C2C12, S2 Table, module primary assay, 20 / 20.1 codes per legend, read-out: Wnt Pathway.
Where [5] appears, read: Rattus norvegicus, INS-1E; read-out: Insulin Secretion.
Setting [6] is: Homo sapiens, NCI-H716; read-out: GLP 1 Secretion.
Where [7] appears, read: Homo sapiens, S2 Table, 20 = no response at highest concentration.
Where [8] appears, read: Homo sapiens, DLD-1, basal, DLD-1, read-out: Basal_Viability ATP DLD-1.
Setting [9] is: Homo sapiens, SW480, basal, SW480, read-out: Basal_Viability ATP SW480.
Where [10] appears, read: Homo sapiens; basal; Colo 320; read-out: Basal_Viability ATP Colo 320.
[11] abbreviates: Homo sapiens, basal, HT-29, read-out: Basal_Viability ATP HT-29.
Setting [12] is: Homo sapiens; basal; RKO; read-out: Basal_Viability ATP RKO.
The mark [13] stands for this setting: Homo sapiens, SNU-C1, basal, SNU-C1, read-out: Basal_Viability ATP SNU-C1.
Setting [14] is: Homo sapiens, COLO 320, read-out: Basal_Viability ATP Colo 320.
[15] abbreviates: Homo sapiens, RKO, read-out: Basal_Viability ATP RKO.
Where [16] appears, read: Homo sapiens, SNU-C1, read-out: Basal_Viability ATP SNU-C1.
Setting [17] is: Mus musculus, C2C12, IC50 / EC50, C2C12 beta-catenin translocation, read-out: Wnt Pathway.
Setting [18] is: Rattus norvegicus; IC50 / EC50; INS-1E; read-out: Insulin Secretion.
[19] abbreviates: Homo sapiens; IC50 / EC50; NCI-H716; read-out: GLP 1 Secretion.
Setting [20] is: Homo sapiens, HT-29, read-out: Basal_Viability ATP HT-29.

Take `Cc1nc2ccccc2n1Cc1ccc(Cl)cc1` [1-P-chlorobenzyl-2-methylbenzimidazole]: the IC50 in test [1] (IC50 / EC50; endothelial tube area, ADSC/ECFC co-culture; read-out: Anti-Angiogenesis) is 7.38 µM; in the test with DLD-1 (basal, read-out: Basal_Viability ATP DLD-1) it was over 20 µM; with SW480 (basal, read-out: Basal_Viability ATP SW480), 5.33 µM; in the test on HCT116 (basal, read-out: Basal_Viability ATP HCT116) it was 1.22 µM; in test [3] (GSK3b inhibitor pretreated, read-out: GSK3b inh pretreated_Viability ATP HCT116), 12 µM; in the test on Colo320 (basal; read-out: Basal_Viability ATP Colo 320) it was 15.2 µM. Moreover, the IC50 in the test on HT-29 (basal, read-out: Basal_Viability ATP HT-29) was over 20 µM; in the test with SNU-C1 (basal, read-out: Basal_Viability ATP SNU-C1) it was over 20 µM. The EC50 in test [2] (IC50 / EC50, C2C12 beta-catenin translocation, read-out: Wnt Pathway) is over 10 µM; with INS-1E cells (IC50 / EC50; INS-1E; read-out: Insulin Secretion), over 10 µM; with NCI-H716 cells (IC50 / EC50; NCI-H716; read-out: GLP 1 Secretion), over 10 µM; in the test with HeLa cells (IC50 / EC50) it was over 10 µM.

Regarding `O=c1[nH]cc(F)c(=O)[nH]1` [Fluorouracil], the IC50 is over 10 µM in [1] (Homo sapiens; read-out: Anti-Angiogenesis); over 20 µM with DLD-1 (setting [8]); over 20 µM with SW480 (setting [9]); over 20 µM with Colo320 (setting [10]); over 20 µM in the test on HT-29 (setting [11]); over 20 µM with RKO (setting [12]). The IC50 with SNU-C1 (setting [13]) was over 20 µM. For the same compound, the EC50 (in [2] (setting [4]); in the test on INS-1E cells (setting [5]); in the test on NCI-H716 cells (setting [6]); in the test with HeLa cells (setting [7])) was over 10 µM throughout.

For `COc1cc(NC(C)CCCN)c2ncccc2c1` (centres unmarked) [Primaquine], the IC50 in test [1] (Homo sapiens, read-out: Anti-Angiogenesis) is over 10 µM; with DLD-1 (Homo sapiens, DLD-1, read-out: Basal_Viability ATP DLD-1), over 20 µM; in the test on SW480 (Homo sapiens, SW480, read-out: Basal_Viability ATP SW480), over 20 µM; with HCT116 (Homo sapiens, HCT-116, read-out: Basal_Viability ATP HCT116), 1.88 µM; in test [3] (Homo sapiens, HCT-116, read-out: GSK3b inh pretreated_Viability ATP HCT116), over 20 µM; in the test with Colo320 (setting [14]), over 20 µM. For the same compound, the IC50 in the test on RKO (setting [15]) and in the test with SNU-C1 (setting [16]) was over 20 µM each time. Besides, the EC50 was over 10 µM in test [2] (Mus musculus, C2C12, read-out: Wnt Pathway); over 10 µM in the test with INS-1E cells (Rattus norvegicus, INS-1E, read-out: Insulin Secretion); over 10 µM in the test with NCI-H716 cells (Homo sapiens, NCI-H716, read-out: GLP 1 Secretion); over 10 µM in the test with HeLa cells (Homo sapiens).

`CC(C)=CCNc1ncnc2c1ncn2[C@@H]1O[C@H](CO)[C@@H](O)[C@H]1O` [Riboprine]: the IC50 in test [1] (Homo sapiens, IC50 / EC50; endothelial tube area, ADSC/ECFC co-culture; read-out: Anti-Angiogenesis) is 2.66 µM; with HT-29 (setting [20]), over 20 µM; in the test on SNU-C1 (setting [16]), 9.01 µM. Besides, the EC50 was over 10 µM in test [2] (setting [17]); over 10 µM in the test on INS-1E cells (setting [18]); over 10 µM in the test on NCI-H716 cells (setting [19]); over 10 µM with HeLa cells (Homo sapiens, IC50 / EC50).

On to `Nc1nc(Cl)nc2c1ncn2[C@@H]1O[C@H](CO)[C@@H](O)[C@@H]1F` [clofarabine], for which the EC50 (in test [2] (setting [4]); with INS-1E cells (setting [5]); in the test with NCI-H716 cells (setting [6]); in the test on HeLa cells (setting [7])) was over 10 µM each time. Also, the IC50 in the test with DLD-1 (setting [8]) is 0.164 µM; in the test on SW480 (setting [9]) it was 1.2 µM; in the test with HCT116 (Homo sapiens, HCT-116, basal, HCT116, read-out: Basal_Viability ATP HCT116) it was 0.001 µM; in [3] (Homo sapiens, HCT-116, HCT116 pretreated with GSK3b inhibitor, read-out: GSK3b inh pretreated_Viability ATP HCT116), 0.001 µM; in the test on Colo320 (setting [10]), over 20 µM; in the test with HT-29 (setting [11]), over 20 µM. In addition, the IC50 is 0.001 µM in the test on RKO (setting [12]) and over 20 µM with SNU-C1 (setting [13]).

For `CC[C@H]1CN2CCc3cc(OC)c(OC)cc3[C@@H]2C[C@@H]1C[C@H]1NCCc2cc(OC)c(OC)cc21` [emetine], the EC50 in test [2] (setting [17]) is over 10 µM; in the test on INS-1E cells (setting [18]), over 10 µM; with NCI-H716 cells (setting [19]), over 10 µM; with HeLa cells (Homo sapiens, IC50 / EC50), over 10 µM. Moreover, the IC50 in the test on DLD-1 (Homo sapiens, DLD-1, basal, read-out: Basal_Viability ATP DLD-1) stood at 0.0116 µM; with SW480 (Homo sapiens, SW480, basal, read-out: Basal_Viability ATP SW480) it was 0.001 µM; in the test on HCT116 (Homo sapiens, HCT-116, basal, read-out: Basal_Viability ATP HCT116), 0.0615 µM; in [3] (Homo sapiens, HCT-116, GSK3b inhibitor pretreated, read-out: GSK3b inh pretreated_Viability ATP HCT116), 0.001 µM; in the test with Colo320 (Homo sapiens, COLO 320; read-out: Basal_Viability ATP Colo 320), 0.0221 µM; in the test with HT-29 (setting [20]), 0.0163 µM. Besides, the IC50 amounted to 0.00831 µM in the test on RKO (Homo sapiens, RKO; read-out: Basal_Viability ATP RKO) and 0.00228 µM in the test on SNU-C1 (Homo sapiens, SNU-C1, basal, read-out: Basal_Viability ATP SNU-C1).

Turning to `CC(C)n1c(/C=C/C(O)CC(O)CC(=O)O)c(-c2ccc(F)cc2)c2ccccc21` (centres unmarked) [fluvastatin, reference compound], the EC50 is over 10 µM in [2] (Mus musculus, C2C12, Table 2, C2C12, […], 20 / 20.1 coded, read-out: Wnt pot. EC50); over 10 µM in the test on INS-1E cells (Rattus norvegicus, INS-1E; read-out: Ins. sec. EC50); over 10 µM in the test with NCI-H716 cells (Homo sapiens, NCI-H716; read-out: GLP1 sec. EC50); over 10 µM with HeLa cells (setting [7]). Besides, the IC50 is over 20 µM in the test on DLD-1 (Homo sapiens, DLD-1, 72 h, Table 2, 72 h, Cell TiterGlo, non-adherent, 20 coded, read-out: DLD-1 viab. IC50); 13 µM in the test on Colo320 (setting [14]); 13 µM in the test with Colo320 (Homo sapiens, COLO 320; Table 2; 72 h, Cell TiterGlo, non-adherent; 20 coded; read-out: Colo320 viab. IC50); over 20 µM in the test with HT-29 (Homo sapiens, HT-29, Table 2, 72 h, Cell TiterGlo, non-adherent, 20 coded, read-out: HT-29 viab. IC50); 19.2 µM with RKO (setting [15]); 19.2 µM with RKO (Homo sapiens, RKO; Table 2; 72 h, Cell TiterGlo, non-adherent; 20 coded; read-out: RKO viab. IC50). Moreover, the IC50 in the test on SNU-C1 (Homo sapiens, SNU-C1, 72 h, Table 2, 72 h, Cell TiterGlo, non-adherent, 20 coded, read-out: SNU-C1 viab. IC50) is over 20 µM.

The record behind these values is PMC4503722, “Novel Phenotypic Outcomes Identified for a Public Collection of Approved Drugs from a Publicly Accessible Panel of Assays” (PLoS ONE, 2015).
